Calls of active or inactive are those of the source. No cut-off for these calls is given here.
Tests used:
CCRF-CEM = assay: Antiproliferative activity against human CEM cells after 96 hrs by Coulter counter method; format: functional, cell-based
[1] = Antiproliferative activity against bovine BAEC cells after 3 days by Coulter counter method; format: functional, cell-based; details: Bos taurus, 72 h
HeLa = assay: Antiproliferative activity against human HeLa cells after 4 days by Coulter counter method; format: functional, cell-based; details: 96 h
L1210 = assay: Antiproliferative activity against mouse L1210 cells after 48 hrs by Coulter counter method; format: functional, cell-based; details: L1210, 48 h
[2] = Antiproliferative activity against human HMEC1 cells after 4 days by Coulter counter method; format: functional, cell-based; details: HMEC-1, 96 h
[3] = molecular target: T1, DNA topoisomerase 1 (Homo sapiens) (UniProt P11387); assay: Inhibition of recombinant human topoisomerase 1-mediated relaxation of supercoiled pBR322 DNA at 10 uM after 60 mins by agarose gel electrophoresis
T1 sequence (whole entry): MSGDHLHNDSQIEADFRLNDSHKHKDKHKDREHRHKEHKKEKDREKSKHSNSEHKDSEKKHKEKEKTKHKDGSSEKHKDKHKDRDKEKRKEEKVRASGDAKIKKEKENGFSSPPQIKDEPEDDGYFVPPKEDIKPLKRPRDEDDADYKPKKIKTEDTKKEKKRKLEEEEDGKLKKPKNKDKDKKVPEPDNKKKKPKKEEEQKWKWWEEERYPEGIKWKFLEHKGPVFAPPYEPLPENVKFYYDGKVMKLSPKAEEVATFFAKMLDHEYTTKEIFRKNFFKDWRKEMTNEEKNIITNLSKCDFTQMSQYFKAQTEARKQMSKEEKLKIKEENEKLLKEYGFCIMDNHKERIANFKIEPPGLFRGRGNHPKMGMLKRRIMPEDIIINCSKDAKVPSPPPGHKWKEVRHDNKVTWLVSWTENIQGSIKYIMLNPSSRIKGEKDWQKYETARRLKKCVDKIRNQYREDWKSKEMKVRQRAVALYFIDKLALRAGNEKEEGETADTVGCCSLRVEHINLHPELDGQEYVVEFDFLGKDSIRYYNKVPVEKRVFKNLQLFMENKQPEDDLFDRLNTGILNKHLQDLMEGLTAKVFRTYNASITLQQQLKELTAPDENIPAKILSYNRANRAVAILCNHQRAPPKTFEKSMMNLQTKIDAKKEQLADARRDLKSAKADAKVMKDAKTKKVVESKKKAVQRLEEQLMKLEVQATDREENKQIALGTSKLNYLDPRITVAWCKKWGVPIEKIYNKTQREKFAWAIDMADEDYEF

[4] = molecular target: DNA topoisomerase 2-alpha (Homo sapiens) (UniProt P11388); assay: Inhibition of recombinant human topoisomerase 2-mediated relaxation of supercoiled pBR322 DNA at 10 uM after 60 mins by agarose gel electrophoresis
[5] = molecular target: DNA topoisomerase 2-alpha (Homo sapiens) (UniProt P11388); assay: Inhibition of recombinant human topoisomerase 2-mediated relaxation of supercoiled pBR322 DNA at 50 uM after 60 mins by agarose gel electrophoresis
[6] = molecular target: DNA topoisomerase 2-alpha (Homo sapiens) (UniProt P11388); assay: Inhibition of recombinant human topoisomerase 2-mediated relaxation of supercoiled pBR322 DNA after 60 mins by agarose gel electrophoresis
[7] = molecular target: DNA topoisomerase 2-alpha (Homo sapiens) (UniProt P11388); assay: Stabilization of recombinant human topoisomerase 2-pBR322 DNA cleavage complex assessed as linear DNA formation at 100 uM after 60 mins by agarose gel electrophoresis
[8] = molecular target: T2, NAD-dependent protein deacetylase sirtuin-2 (Homo sapiens) (UniProt Q8IXJ6); assay: Inhibition of SIRT2 (unknown origin) using KI179 as substrate preincubated at 200 uM for 5 mins before substrate addition measured after 1 hr by Fluor de Lys fluorescence assay
T2 sequence (whole entry): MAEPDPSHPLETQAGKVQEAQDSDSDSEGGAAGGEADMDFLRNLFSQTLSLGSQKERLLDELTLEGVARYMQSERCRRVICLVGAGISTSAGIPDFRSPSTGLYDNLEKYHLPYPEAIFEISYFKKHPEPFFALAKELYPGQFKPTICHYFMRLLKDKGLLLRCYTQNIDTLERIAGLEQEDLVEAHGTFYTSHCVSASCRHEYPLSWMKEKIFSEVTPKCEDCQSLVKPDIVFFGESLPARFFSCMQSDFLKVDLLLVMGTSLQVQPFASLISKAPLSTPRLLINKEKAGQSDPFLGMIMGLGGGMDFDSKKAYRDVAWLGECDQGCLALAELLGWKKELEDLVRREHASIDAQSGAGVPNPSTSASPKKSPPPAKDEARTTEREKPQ

[9] = molecular target: T1, DNA topoisomerase 1 (Homo sapiens); assay: Stabilization of recombinant human topoisomerase 1-pBR322 DNA cleavage complex assessed as linear DNA formation at 0.5 uM after 60 mins by agarose gel electrophoresis
[10] = molecular target: T3, NAD-dependent protein deacetylase sirtuin-1 (Homo sapiens) (UniProt Q96EB6); assay: Inhibition of SIRT1 (unknown origin) using KI177 as substrate preincubated at 200 uM for 5 mins before substrate addition measured after 1 hr by Fluor de Lys fluorescence assay
T3 sequence (whole entry): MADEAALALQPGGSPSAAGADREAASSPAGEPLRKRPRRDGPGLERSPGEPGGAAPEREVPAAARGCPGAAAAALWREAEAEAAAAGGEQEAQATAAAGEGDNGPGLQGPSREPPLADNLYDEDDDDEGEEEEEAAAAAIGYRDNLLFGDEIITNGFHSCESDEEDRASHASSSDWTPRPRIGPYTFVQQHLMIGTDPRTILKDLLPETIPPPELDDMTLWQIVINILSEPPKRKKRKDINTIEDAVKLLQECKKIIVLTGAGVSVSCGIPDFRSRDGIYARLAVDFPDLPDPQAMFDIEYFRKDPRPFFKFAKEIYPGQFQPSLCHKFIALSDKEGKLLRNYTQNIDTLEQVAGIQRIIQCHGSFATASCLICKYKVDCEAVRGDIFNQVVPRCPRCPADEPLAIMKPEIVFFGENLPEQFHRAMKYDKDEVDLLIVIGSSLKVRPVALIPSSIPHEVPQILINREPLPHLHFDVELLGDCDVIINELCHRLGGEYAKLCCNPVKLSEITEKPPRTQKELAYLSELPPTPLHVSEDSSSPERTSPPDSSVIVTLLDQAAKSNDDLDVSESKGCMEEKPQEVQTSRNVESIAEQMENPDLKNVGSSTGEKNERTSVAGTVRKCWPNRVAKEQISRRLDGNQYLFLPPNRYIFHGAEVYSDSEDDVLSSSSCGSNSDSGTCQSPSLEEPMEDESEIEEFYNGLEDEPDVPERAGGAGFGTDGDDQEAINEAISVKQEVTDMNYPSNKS

[11] = molecular target: DNA topoisomerase 2-alpha (Homo sapiens) (UniProt P11388); assay: Stabilization of recombinant human topoisomerase 2-pBR322 DNA cleavage complex assessed as linear DNA formation at 10 uM after 60 mins by agarose gel electrophoresis

DNA topoisomerase 2-alpha (Homo sapiens), sequence (P11388 whole entry): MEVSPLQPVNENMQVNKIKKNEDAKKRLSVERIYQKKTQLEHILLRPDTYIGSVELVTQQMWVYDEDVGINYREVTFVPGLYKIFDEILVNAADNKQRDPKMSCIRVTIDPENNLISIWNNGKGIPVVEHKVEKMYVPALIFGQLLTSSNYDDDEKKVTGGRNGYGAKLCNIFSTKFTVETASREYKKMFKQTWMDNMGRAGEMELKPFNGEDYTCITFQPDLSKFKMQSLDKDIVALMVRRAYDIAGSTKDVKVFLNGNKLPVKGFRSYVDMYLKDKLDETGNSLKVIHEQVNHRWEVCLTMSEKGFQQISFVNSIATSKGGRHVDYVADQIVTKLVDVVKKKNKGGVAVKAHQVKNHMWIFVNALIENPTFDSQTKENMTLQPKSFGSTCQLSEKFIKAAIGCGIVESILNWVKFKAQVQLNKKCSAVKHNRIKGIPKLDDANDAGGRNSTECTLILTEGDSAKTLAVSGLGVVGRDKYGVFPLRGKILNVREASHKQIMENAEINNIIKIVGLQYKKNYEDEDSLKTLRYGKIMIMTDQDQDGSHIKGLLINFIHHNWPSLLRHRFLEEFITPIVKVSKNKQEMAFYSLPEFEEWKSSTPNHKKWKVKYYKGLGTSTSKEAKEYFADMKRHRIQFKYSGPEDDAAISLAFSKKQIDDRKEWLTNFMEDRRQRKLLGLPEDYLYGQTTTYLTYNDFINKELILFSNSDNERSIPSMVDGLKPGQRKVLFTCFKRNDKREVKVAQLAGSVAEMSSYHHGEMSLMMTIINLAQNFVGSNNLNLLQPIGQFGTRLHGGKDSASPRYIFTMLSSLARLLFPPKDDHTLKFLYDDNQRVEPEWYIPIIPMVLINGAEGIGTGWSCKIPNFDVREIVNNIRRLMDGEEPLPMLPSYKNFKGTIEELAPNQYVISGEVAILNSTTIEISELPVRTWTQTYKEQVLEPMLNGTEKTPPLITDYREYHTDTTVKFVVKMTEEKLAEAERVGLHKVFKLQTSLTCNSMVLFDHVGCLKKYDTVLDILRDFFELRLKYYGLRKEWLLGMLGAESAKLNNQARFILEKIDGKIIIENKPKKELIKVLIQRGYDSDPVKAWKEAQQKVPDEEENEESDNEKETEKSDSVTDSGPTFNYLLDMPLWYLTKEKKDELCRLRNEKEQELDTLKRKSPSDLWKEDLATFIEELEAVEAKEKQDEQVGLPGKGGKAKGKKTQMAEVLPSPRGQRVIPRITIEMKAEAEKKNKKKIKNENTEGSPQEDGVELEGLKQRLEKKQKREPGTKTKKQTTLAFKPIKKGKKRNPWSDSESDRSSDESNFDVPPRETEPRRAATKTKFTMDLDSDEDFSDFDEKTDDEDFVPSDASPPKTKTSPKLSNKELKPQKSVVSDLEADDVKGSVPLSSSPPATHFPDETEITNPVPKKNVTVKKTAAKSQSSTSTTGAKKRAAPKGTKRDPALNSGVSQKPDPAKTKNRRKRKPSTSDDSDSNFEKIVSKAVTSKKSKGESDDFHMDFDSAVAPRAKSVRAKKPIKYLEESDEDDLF

Compound | IC50 (CCRF-CEM) | IC50 [1] | IC50 (HeLa) | IC50 (L1210) | IC50 [2] | inhibition [3] | inhibition [4] | inhibition [5] | inhibition [6] | Activity [7] | inhibition [8] | Activity [9] | inhibition [10] | Activity [11]
COc1ccc2c3c(c4cc(OC)c(OC)cc4c2c1)CN1CCCCC1C3 (racemic) | 119 nM | 9 nM | 76 nM | 71 nM | 29 nM | – | – | – | – | – | – | – | – | –
COc1ccc2c3c(c4cc(OC)c(OC)cc4c2c1)CN1CCCC[C@H]1C3 | 201 nM | 23 nM | 182 nM | 111 nM | 82 nM | Active | inactive | Active | Dose-dependent effect | inactive | 41% | inactive | 10% | –
CC[C@@]1(O)C(=O)OCc2c1cc1n(c2=O)Cc2cc3ccccc3nc2-1 | – | – | – | – | – | – | – | – | – | – | – | Active | – | –
COc1ccc(/C=C\c2cc(OC)c(OC)c(OC)c2)cc1OP(=O)(O)O [FOSBRETABULIN DISODIUM] | 95 nM | 3.9 nM | 79 nM | 82 nM | 2.9 nM | – | – | – | – | – | – | – | – | –
COc1cc(NS(C)(=O)=O)ccc1Nc1c2ccccc2nc2ccccc12 | – | – | – | – | – | – | – | – | – | – | – | – | – | Active
COc1ccc2c3c(c4cc(OC)c(OC)cc4c2c1)CN1CCCC[C@@H]1C3 | 185 nM | 23 nM | 66 nM | 19 nM | 7.4 nM | Active | inactive | Active | Dose-dependent effect | inactive | 65% | inactive | 12% | –
